In US20260241021A1 (priority 2023, published 2026):

Legend:
[1] = target: cathepsin B (Homo sapiens, UniProt P07858); test: Digestion and exatecan release of linker-payloads by cathepsin B cleavage (LC-UV); type: in vitro ADME; details: 5 μg linker-payload, 10 μg/mL activated cathepsin B, 37° C., sampled for 24 hours
Description: This study was conducted to evaluate how the DCBO and BCN in the linker-payloads would affect drug release. The study also included the linker-payloads with the two-amino acid spacer “GG” in the digestion comparison. The study was evaluated by digesting the linker-payloads using cathepsin B and quantifying the released exatecan by LC-UV. To perform exatecan release test by cathepsin B cleavage, 5 μg of the linker-payloads were treated with 10 μg/mL of activated cathepsin B in digestion buffer for payload cleavage at 37° C. The reaction mixture was sampled every two hours for 24 hours, and the amounts of released exatecan and residual linker-payload were analyzed by LC-UV. A C18 column (Symmetry 5 μm, 2.1×150 mm Waters) was applied for this analysis. Samples were eluted with ACN/water gradient at a flow rate of 0.5 mL/min, and the chromatogram was monitored at 263 nm.

[2] = system: SKBR-3 breast cancer cells; test: Cytotoxicity of linker-payloads (CellTiter-Glo, six days); type: cell-based, human; details: SKBR-3, six days
Excerpt: Human SKBR-3 breast cancer cells (ATCC, HTB-30) were used in this study. […] The IC50 data for the different linker payloads were similar.

[3] = system: NCI-N87 gastric cells; details: NCI-N87, 6 days
Description: (§1) Tumor cells (2×10^3 cells/well) were seeded in 96 well plates and treated with ADCs for 6 days. CellTiter-Glo® Reagent (Cat. G7572, Promega) was prepared by adding CellTiter-Glo® Buffer into lyophilized CellTiter-Glo® Substrate. Reconstituted CellTiter-Glo® Reagent was added into the culture medium with cells at 1:1 ratio after treatment for 6 days. The plate was placed on an orbital shaker for 2 minutes to induce cell lysis and then incubated at room temperature for 10 minutes before recording the luminescent signals by Luminometer. The viability of each treated sample was compared to the non-treated control. The IC50 of each ADC was calculated by Prism.

[4] = system: Capan-1 pancreatic cancer cells; details: Capan-1, 6 days
Description: as §1

Compound | percentage of linker-payloads existed (% linker-payload) after cathepsin B cleavage reaction [1] [%] | IC50 ([2]; Homo sapiens, SK-BR-3, 144 h) [nM] | amount of released exatecan [1] [%] | IC50 [2] [nM] | IC50 [3] [nM] | IC50 [4] [nM]
CC[C@@]1(O)C(=O)OCc2c1cc1n(c2=O)Cc2c-1nc1cc(F)c(C)c3c1c2[C@@H](NC(=O)OC(C(=O)NCCOCCOCCOCCOCCOCCOCCOCCOCCOCCOCCOCCOCCOCCOCCOCCOCCOCCOCCOCCOCCOCCOCCOCCOC)c1ccc(NC(=O)[C@H](C)NC(=O)[C@@H](NC(=O)CCC(=O)N2Cc4ccccc4C#Cc4ccccc42)C(C)C)cc1)CC3 (mixture of isomers) [DL-5, DBCO-VA-Hydra-PAB-PEG24-Exatecan] | 75 | 244 | – | – | – | –
CC[C@@]1(O)C(=O)OCc2c1cc1n(c2=O)Cc2c-1nc1cc(F)c(C)c3c1c2[C@@H](NC(=O)OC(C(=O)NCCOCCOCCOCCOCCOCCOCCOCCOCCOCCOCCOCCOCCOCCOCCOCCOCCOCCOCCOCCOCCOCCOCCOCCOC)c1ccc(NC(=O)[C@H](C)NC(=O)[C@@H](NC(=O)OC[C@@H]2[C@@H]4CCC#CCC[C@@H]42)C(C)C)cc1)CC3 (mixture of isomers) [DL-6, BCN-VA-Hydra-PAB-PEG24-Exatecan] | 14 | 221 | – | – | – | –
CC[C@@]1(O)C(=O)OCc2c1cc1n(c2=O)Cc2c-1nc1cc(F)c(C)c3c1c2[C@@H](NC(=O)OC(C(=O)NCCOCCOCCOCCOCCOCCOCCOCCOCCOCCOCCOCCOCCOCCOCCOCCOCCOCCOCCOCCOCCOCCOCCOCCOC)c1ccc(NC(=O)[C@H](C)NC(=O)[C@@H](NC(=O)CNC(=O)CNC(=O)CCC(=O)N2Cc4ccccc4C#Cc4ccccc42)C(C)C)cc1)CC3 (mixture of isomers) [DL-7, DBCO-GGVA-Hydra-PAB-PEG24-Exatecan] | 66 | 96.7 | – | – | – | –
BCN-GGVA-Hydra-PAB-PEG24-Exatecan [DL-8] | 4 | – | 52.6 | 138 | – | –
TX05-DBCO-PEG24-Exatecan ADC [ADC-4] | – | – | – | – | 5.51 | 71.8
TX05-MCCA-PEG24-Exatecan ADC [ADC-3] | – | – | – | – | 2.9 | 64.6
